Reference: patent US6706663B2, “Herbicidal 3-heterocyclic substituted benzisothiazole and benzisoxazole compounds” (Wyeth, priority 2000, dated 2004)

How the values were obtained:
[1] = system: ECHCG (Echinochloa crus-galli); assay: Postemergence herbicidal evaluation; format: in vivo, (L.) Beau
Outline: (§1)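 Seedlings grown for about two weeks were sprayed postemergence and then kept under standard greenhouse care. Injury was rated visually 4–5 weeks after treatment on a 0–9 scale against untreated controls, and ratings from repeat tests were averaged.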

SETVI (Setaria viridis) = assay: Postemergence herbicidal evaluation; format: in vivo, (L.) Beau
Outline: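 First, seedlings are raised in flats for about two weeks. Next, compound dispersed in 50/50 acetone/water with 0.5% TWEEN 20 is sprayed at 40 psi to deliver about 0.0040–1.000 kg/ha. Plants are then maintained in the greenhouse and rated 0-9 after four to five weeks.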

[2] = system: TRZAWR (Wheat, Winter, cv Riband); assay: Postemergence herbicidal evaluation; format: in vivo, Triticum aestivum
Outline: as §1

[3] = system: ABUTH (Abutilon theophrasti); assay: Preemergence herbicidal evaluation; format: in vivo, Medic.; conditions: preemergence, rated 4-5 weeks after treatment
[4] = system: AMBEL (Ambrosia artemisifolia); assay: Preemergence herbicidal evaluation; format: in vivo, L.; conditions: preemergence, rated 4-5 weeks after treatment
Outline: (§2)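 Seeds mixed with potting soil were planted atop about one inch of soil, then sprayed with test compound in aqueous acetone. Cups were kept in the greenhouse and rated visually 4–5 weeks after treatment on a 0–9 scale against untreated control.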

[5] = system: CASOB (Cassia obtusifolia); assay: Preemergence herbicidal evaluation; format: in vivo, L.; conditions: preemergence, rated 4-5 weeks after treatment
Outline: as §2

[6] = system: CHEAL (Chenopodium album); assay: Preemergence herbicidal evaluation; format: in vivo, L.; conditions: preemergence, rated 4-5 weeks after treatment
Outline: as §2

[7] = system: IPOHE (Ipomoea hederacea); assay: Preemergence herbicidal evaluation; format: in vivo, (L.) Jacq.; conditions: preemergence, rated 4-5 weeks after treatment
[8] = system: GLXMAW (Soybean, Williams); assay: Preemergence herbicidal evaluation; format: in vivo, Glycine max, (L.) Merr. cv Williams; conditions: preemergence, rated 4-5 weeks after treatment
ZEAMX (Corn, Field) = assay: Preemergence herbicidal evaluation; format: in vivo, Zea mays, L.; conditions: preemergence, rated 4-5 weeks after treatment
[9] = system: ECHORC (Echinochloa oryzoides); assay: Flooded paddy, preemergence weed control; format: in vivo, Echinochloa oryzoides (Ard.) Fritsch.; conditions: rated 3-4 weeks after treatment, 0-9 rating scale
Outline: (§3)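 Greenhouse paddy test, preemergence. Seeds planted in the top 0.5 cm of silt loam soil, which remained flooded at 1.5–3 cm depth. Scored 0-9 by visual comparison with control.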

CYPIR (Cyperus iria) = assay: Flooded paddy, preemergence weed control; format: in vivo; conditions: rated 3-4 weeks after treatment, 0-9 rating scale
Outline: as §3

[10] = system: CYPSE (Cyperus serotinus); assay: Flooded paddy, preemergence weed control; format: in vivo, Rottb.; conditions: rated 3-4 weeks after treatment, 0-9 rating scale
Outline: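 Seeds or propagules were planted 0.5 cm deep in silt loam and flooded to 1.5–3 cm. Compounds in 50/50 v/v aqueous/acetone were pipetted into the flood water at about 0.0080 to 0.1250 kg/ha. After 3–4 weeks in the greenhouse, effect was rated visually on a 0–9 scale versus untreated control.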

[11] = system: MOOVA (Monochoria vaginalis); assay: Flooded paddy, preemergence weed control; format: in vivo, Presl.; conditions: rated 3-4 weeks after treatment, 0-9 rating scale
Outline: as §3

ORYSAT (Rice, Tebonnet) = assay: Flooded paddy, post-transplant rice tolerance; format: in vivo, Oryza sativa, (L.) Tebonnet; conditions: flooded paddy, post-transplant rice, rated 3-4 weeks after treatment, 0-9 rating scale
Outline: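 Scores (0-9) reflect visual injury relative to untreated plants in flooded silt loam. Each pot held two transplanted ten-day-old seedlings under 1.5 to 3 cm standing water in the greenhouse.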

Row | SMILES | Postemergence herbicidal rating, ECHCG ([1]; rate 0.0320 kg/ha) | Postemergence herbicidal rating, ECHCG ([1]; rate 0.0620 kg/ha) | Postemergence herbicidal rating, ECHCG ([1]; rate 0.1250 kg/ha) | Postemergence herbicidal rating, SETVI (SETVI (Setaria viridis); rate 0.0320 kg/ha) | Postemergence herbicidal rating, SETVI (SETVI (Setaria viridis); rate 0.0620 kg/ha) | Postemergence herbicidal rating, SETVI (SETVI (Setaria viridis); rate 0.1250 kg/ha) | Postemergence herbicidal rating, TRZAWR ([2]; rate 0.0320 kg/ha) | Postemergence herbicidal rating, TRZAWR ([2]; rate 0.0620 kg/ha) | Postemergence herbicidal rating, TRZAWR ([2]; rate 0.1250 kg/ha) | ABUTH preemergence herbicidal rating ([3]; Rate 0.0620 kg/ha) | ABUTH preemergence herbicidal rating ([3]; Rate 0.1250 kg/ha) | ABUTH preemergence herbicidal rating ([3]; Rate 0.2500 kg/ha) | AMBEL preemergence herbicidal rating ([4]; Rate 0.0620 kg/ha) | AMBEL preemergence herbicidal rating ([4]; Rate 0.1250 kg/ha) | AMBEL preemergence herbicidal rating ([4]; Rate 0.2500 kg/ha) | CASOB preemergence herbicidal rating ([5]; Rate 0.0620 kg/ha) | CASOB preemergence herbicidal rating ([5]; Rate 0.1250 kg/ha) | CASOB preemergence herbicidal rating ([5]; Rate 0.2500 kg/ha) | CHEAL preemergence herbicidal rating ([6]; Rate 0.0620 kg/ha) | CHEAL preemergence herbicidal rating ([6]; Rate 0.1250 kg/ha) | further results
1 | Cc1ccc(-c2nsc3ccc(N4C(=O)C5=C(CCCC5)C4=O)cc23)s1 [Compound 20, N-[3-(5-methyl-2-thienyl)-1,2-benzisothiazol-5-yl]-1-cyclohexene-1,2-dicarboximide] | 1.0 | 1.0 | 1.0 | 2.0 | 2.0 | 2.0 | 3.5 | 4.0 | 4.5 | 1.0 | 2.0 | 4.0 | 0.0 | 1.0 | 2.0 | 0.0 | 0.0 | 2.0 | 0.0 | 2.0 | CHEAL preemergence herbicidal rating ([6]; Rate 0.2500 kg/ha): 3.0; IPOHE preemergence herbicidal rating ([7]; Rate 0.0620 kg/ha): 0.0; IPOHE preemergence herbicidal rating ([7]; Rate 0.1250 kg/ha): 0.0; IPOHE preemergence herbicidal rating ([7]; Rate 0.2500 kg/ha): 0.0; GLXMAW preemergence herbicidal rating ([8]; Rate 0.0620 kg/ha): 0.0; GLXMAW preemergence herbicidal rating ([8]; Rate 0.1250 kg/ha): 0.0; GLXMAW preemergence herbicidal rating ([8]; Rate 0.2500 kg/ha): 0.0; ZEAMX preemergence herbicidal rating (ZEAMX (Corn, Field); Rate 0.0620 kg/ha): 0.0; ZEAMX preemergence herbicidal rating (ZEAMX (Corn, Field); Rate 0.1250 kg/ha): 0.0; ZEAMX preemergence herbicidal rating (ZEAMX (Corn, Field); Rate 0.2500 kg/ha): 0.0; herbicidal rating, ECHORC ([9]; rate 0.0320 kg/ha): 5.0; herbicidal rating, ECHORC ([9]; rate 0.1250 kg/ha): 7.0; herbicidal rating, CYPIR (CYPIR (Cyperus iria); rate 0.0320 kg/ha): 2.0; herbicidal rating, CYPIR (CYPIR (Cyperus iria); rate 0.1250 kg/ha): 3.0; herbicidal rating, CYPSE ([10]; rate 0.0320 kg/ha): 4.0; herbicidal rating, CYPSE ([10]; rate 0.1250 kg/ha): 7.0; herbicidal rating, MOOVA ([11]; rate 0.0320 kg/ha): 9.0; herbicidal rating, MOOVA ([11]; rate 0.1250 kg/ha): 9.0; herbicidal rating, ORYSAT (rice tolerance) (ORYSAT (Rice, Tebonnet); rate 0.0320 kg/ha): 2.0; herbicidal rating, ORYSAT (rice tolerance) (ORYSAT (Rice, Tebonnet); rate 0.1250 kg/ha): 2.0
2 | COC(=O)C(C)Oc1ccsc1-c1nsc2ccc(-n3c(=O)cc(C(F)(F)F)n(C)c3=O)cc12 (centres unmarked) [Compound 23, methyl 2-[(2-[5-[3,6-dihydro-3-methyl-2,6-dioxo-4-(trifluoromethyl)-1(2H)-pyrimidinyl]-1,2-benzisothiazol-3-yl]-3-thienyl]oxy]propionate] | 0.0 | 1.0 | 5.0 | 1.0 | 1.0 | 7.0 | 2.5 | 3.5 | 5.0 | 0.0 | 0.0 | 1.0 | 0.0 | 9.0 | 9.0 | 0.0 | 1.0 | 6.0 | 9.0 | 0.0 | CHEAL preemergence herbicidal rating ([6]; Rate 0.2500 kg/ha): 4.0; IPOHE preemergence herbicidal rating ([7]; Rate 0.0620 kg/ha): 0.0; IPOHE preemergence herbicidal rating ([7]; Rate 0.1250 kg/ha): 0.0; IPOHE preemergence herbicidal rating ([7]; Rate 0.2500 kg/ha): 0.0; GLXMAW preemergence herbicidal rating ([8]; Rate 0.0620 kg/ha): 0.0; GLXMAW preemergence herbicidal rating ([8]; Rate 0.1250 kg/ha): 0.0; GLXMAW preemergence herbicidal rating ([8]; Rate 0.2500 kg/ha): 0.0; ZEAMX preemergence herbicidal rating (ZEAMX (Corn, Field); Rate 0.0620 kg/ha): 0.0; ZEAMX preemergence herbicidal rating (ZEAMX (Corn, Field); Rate 0.1250 kg/ha): 0.0; ZEAMX preemergence herbicidal rating (ZEAMX (Corn, Field); Rate 0.2500 kg/ha): 0.0; herbicidal rating, ECHORC ([9]; rate 0.0320 kg/ha): 0.0; herbicidal rating, ECHORC ([9]; rate 0.1250 kg/ha): 3.0; herbicidal rating, CYPIR (CYPIR (Cyperus iria); rate 0.0320 kg/ha): 9.0; herbicidal rating, CYPIR (CYPIR (Cyperus iria); rate 0.1250 kg/ha): 9.0; herbicidal rating, CYPSE ([10]; rate 0.0320 kg/ha): 0.0; herbicidal rating, CYPSE ([10]; rate 0.1250 kg/ha): 9.0; herbicidal rating, MOOVA ([11]; rate 0.0320 kg/ha): 9.0; herbicidal rating, MOOVA ([11]; rate 0.1250 kg/ha): 9.0; herbicidal rating, ORYSAT (rice tolerance) (ORYSAT (Rice, Tebonnet); rate 0.0320 kg/ha): 0.0; herbicidal rating, ORYSAT (rice tolerance) (ORYSAT (Rice, Tebonnet); rate 0.1250 kg/ha): 3.0
